Results reported in patent publication US20240307390A1, “METHODS AND COMPOSITIONS FOR CANCER TREATMENT BY TARGETING AXL SIGNALING” (Sanford Burnham Prebys Medical Discovery Institute, priority 2023, published 2024).

Columns and labels:
[1] = test system: GAS6 in MDA-MB-231 cells; experiment: GAS6 expression and protein in MDA-MB-231 cells; assay type: cell-based, human
Excerpt: (§1) FIGS. 4E and 4F represent ChIP analysis of Flag-EYA2 (FIG. 4E) and Flag-SIX1 (FIG. 4F) binding Gas6 promoter in MDA-MB-231 cells transfected with the indicated siRNAs. FIGS. 4G-4I show GAS6 expression in MCF7 cells transfected with indicated vectors (FIG. 4G) and MDA-MB-231 cells expressing indicated shRNAs (FIG. 4H) or treated with vehicle or EYA2i (FIG. 4I). FIGS. 4J and 4K show immunoblots of AXL signaling proteins in MDA-MB-231 cells transfected with control or FBXO7 siRNA (FIG. 4J) or treated with vehicle or EYA2i (FIG. 4K).
To determine how the FBXO7/EYA2-SCFFBXW7 axis maintains mesenchymal and immune evasion phenotypes of cancer cells, chromatin IP sequencing (ChIP-seq) profiles of EYA2 binding in control and FBXO7 KD cells (FIGS. 4A and 4B) were compared. FBXO7 KD decreased EYA2 binding at various genomic regions, including promoters, exons, and introns (data not shown). […] GAS6 was chosen for further analysis because of the link between AXL and mesenchymal phenotypes in TNBC cells. ChIP confirmed that EYA2 and SIX1 bound the Gas6 promoter and binding was diminished by KD of FBXO7 or co-transcriptional counterpart (FIGS. 4E and 4F). EYA2-2A also bound the Gas6 promoter (data not shown), indicating independence of CPD phosphorylation. Further, FBXO7 bound the Gas6 promoter and FBXO7 or ΔF-FBXO7 expression stimulated EYA2 binding (data not shown). […]

[2] = test system: cancer cells; experiment: Cancer cell viability upon doxorubicin treatment; assay type: cell-based; details: partially rescued by GAS6 expression, FIG. 5H
Excerpt: FIGS. 5A and 5B show a gap closure assay of control, FBXO7 KD, and FBXO7 KD+GAS6 MDA-MB-231 (FIG. 5A) and BT-549 (FIG. 5B) cells. FIGS. 5C and 5D show the migration (FIG. 5C) and invasion (FIG. 5D) of indicated control, FBXO7 KD, and FBXO7 KD+GAS6 cells. […] FIGS. 5G and 5H show viabilities of indicated control, FBXO7 KD, or FBXO7 KD+GAS6 (FIG. 5G) or vehicle or EYA2i treated (FIG. 5H) cells upon doxorubicin treatment.
FBXO7 KD diminished mesenchymal cancer cell migration and invasion in in vitro assays (data not shown). These FBXO7 KD effects were largely rescued by GAS6 expression (FIGS. 5A-5D). […] Again, these phenotypes were largely rescued by GAS6 expression (FIGS. 5E and 5F). […] Consistent with an antagonistic role of SCFFBXW7, FBXW7 KD partially rescued the reduced migration of FBXO7 KD cells and enhanced EYA2i sensitivity (data not shown).

[3] = test system: 4T1-luc breast tumors; experiment: 4T1-luc TNBC tumors in syngeneic immunocompetent mice; assay type: in vivo
Protocol: (§2) FIGS. 6A and 6B show growth curves (FIG. 6A) and images (FIG. 6B) of control, FBXO7 KD, and FBXO7 KD+GAS6 MDA-MB-231 breast tumors in immunocompromised mice. […] FIGS. 6E and 6F show growth curves (FIG. 6E) and images (FIG. 6F) of control and GAS6-expressing MDA-MB-231-luc breast tumors in immunocompromised mice treated with vehicle or EYA2i.
Immunocompetent mice bearing 4T1-luc TNBCs were treated with vehicle or EYA2i and isotype IgG (control) or anti-PD-1 antibody (FIG. 6H).

[4] = test system: MDA-MB-231-luc breast tumors; experiment: Orthotopic MDA-MB-231-luc breast tumors in immunocompromised mice; assay type: in vivo; details: partially rescued by GAS6 expression
Excerpt: as §2

[5] = test system: mesenchymal and immune-stimulatory genes, cell morphology; experiment: Gene expression and cell morphology after EYA2 Tyr phosphatase inhibitor treatment; assay type: cell-based; details: similar to EYA2 KD (flat, cuboidal morphology, decreased mesenchymal, induced immune-stimulatory genes); data not shown
Excerpt: EYA2 KD induced a flat, cuboidal morphology, decreased mesenchymal gene expression, and induced immune-stimulatory genes (FIGS. 2G-2I), phenocopying FBXO7 KD. […] Expression of WT EYA2, but not Tyr phosphatase mutant EYA2D274N or SIX binding mutant EYA2A532R, largely rescued the decreased mesenchymal and increased immune-stimulatory genes in FBXO7 KD cells (data not shown).

[6] = test system: AXL signaling; experiment: Immunoblots of AXL signaling proteins in MDA-MB-231 cells; assay type: cell-based, human; details: FIG. 4K
Excerpt: as §1
In line with the role of GAS6 as an AXL ligand, FBXO7 KD decreased total AXL and phospho-AXLTyr702 and decreased AXL surface expression (FIGS. 4J and 4M), indicating inhibition of AXL signaling. […] GAS6 expression rescued the decreased total and phospho-AXLTyr702 in FBXO7 KD cells (FIG. 4L). Consistent with a role of SCFFBXW7 in antagonizing FBXO7 functions, FBXW7 KD rescued the decreased GAS6 and attenuated AXL signaling in FBXO7 KD cells (data not shown). […] Expression of proinflammatory cytokine suppressor and AXL signaling effector SOCS1 partially rescued the increased IFNα/β, CXCL9/10, and HLA-A/B induced by FBXO7 KD (FIG. 4O). Further, GAS6 expression rescued the increased HLA-A/B/C surface expression on FBXO7 KD cells (data not shown).

[7] = test system: FBXO7-EYA2 binding; experiment: Co-IP of FBXO7-EYA2 binding in treated cells; assay type: cell-based; details: treatment of cells; data not shown
Protocol: To gain insight into how FBXO7 maintains mesenchymal phenotypes and immune evasion of cancer cells, protein mass spectrometry was conducted to identify putative interacting proteins (FIG. 2A). Eyes Absent Homolog 2 (EYA2), a co-activator of the SIX family of homeobox transcription factors with Tyr phosphatase activity, was one of the most abundant FBXO7-interacting proteins (FIG. 2B). Immunoprecipitation (IP) and in vitro pull-down assays confirmed that FBXO7 interacted with EYA2, but not directly with co-transcriptional partner SIX1 (FIGS. 2C and 2D). EYA2's transactivation domain (AD, aa1-252) but not EYA domain (ED, aa253-538), which interacts with SIX proteins, was required for FBXO7 interaction (FIG. 2E). FBXO7's F-box motif was dispensable for EYA2 interaction (FIG. 2F).
SCFFBXW7 substrate recognition is generally triggered by GSK3β-mediated phosphorylation of the substrate CPD. Recombinant SCFFBXW7 bound a synthetic peptide corresponding to phosphorylated EYA2 CPD (FIG. 3I). […] To determine if EYA2 degradation was regulated by GSK3β, we first confirmed endogenous GSK3 β interacted with EYA2 in vivo by IP (data not shown). […] GSK3β stimulated SCFFBXW7-mediated polyubiquitylation of EYA2 in in vitro ubiquitylation reactions (FIG. 3J). […] Therefore, EYA2 is degraded by SCFFBXW7 in a GSK3β-dependent manner.

[8] = test system: EYA2; experiment: EYA2 steady-state level, stability and polyubiquitylation in cells; assay type: cell-based; details: data not shown
Excerpt: Input proteins are shown. […] FIG. 3C represents a putative EYA2 CPD motif across species and compared with other SCF^FBXW7 substrates. […] FIGS. 3F and 3G represent WT and Flag-EYA2-2A stability in MDA-MB-231 cells (FIG. 3F) and endogenous EYA2 in WT and Fbxw7 KO HCT116 cells (FIG. 3G). […] FIG. 3K represents flag-EYA2 stability in MDA-MB-231 cells treated with vehicle (DMSO) or GSK3βi. […] Input proteins shown. […] FIG. 3O represents a model of FBXO7 inhibition of GSK3β-SCFFBXW7-mediated degradation of EYA2.
FBXW7 expression enhanced EYA2 K48-linked but not K63-linked polyubiquitylation (FIG. 3D), indicating SCFFBXW7 regulated EYA2 degradation. IP confirmed EYA2's CPD was required for FBXW7 binding (FIG. 3E). In contrast, FBXO7-EYA2 binding was independent of EYA2's CPD (data not shown). […] In isogenic WT and Fbxw7 knockout (KO) cell lines, the steady-state level and stability of EYA2 increased and polyubiquitylation decreased in the absence of Fbxw7 (FIGS. 3G, 3H).
SCFFBXW7 substrate recognition is generally triggered by GSK3β-mediated phosphorylation of the substrate CPD. Recombinant SCFFBXW7 bound a synthetic peptide corresponding to phosphorylated EYA2 CPD (FIG. 3I). […] To determine if EYA2 degradation was regulated by GSK3β, we first confirmed endogenous GSK3 β interacted with EYA2 in vivo by IP (data not shown). […]

SMILES	total and secreted GAS6 protein ([1]; data not shown)	GAS6 expression ([1]; mesenchymal MDA-MB-231 cells, FIG. 4I)	sensitivity of cancer cells to doxorubicin treatment [2]	intertumoral infiltration of CD8+T and NK cells ([3]; flow cytometric and IHC analyses of 4T1-luc tumors)	H-2Kd MHC class I alloantigen surface expression on 4T1-luc tumor cells ([3]; flow cytometry, FIG. 6L)	4T1-luc tumor growth / antitumor response ([3]; immunocompetent mice, FIGS. 6H and 6I)	lung metastases ([4]; MDA-MB-231-luc)	tumor cell autonomous growth ([4]; orthotopic MDA-MB-231-luc breast tumors)	effects on gene expression and cell morphology [5]	AXL signaling [6]	FBXO7-EYA2 binding [7]	EYA2 levels [8]
O=C(N/N=C/c1ccc(Sc2ccccn2)o1)c1cccc(F)c1 [EYA2i, MLS000544460]	decreased total and secreted GAS6 protein	decreased GAS6 expression	sensitized cancer cells to doxorubicin treatment	stimulated	increased	modestly reduced	diminished	diminished	induced similar effects on gene expression and cell morphology	suppressed AXL signaling	–	–
NS(=O)(=O)OC[C@@H]1C[C@@H](n2ccc3c(N[C@H]4CCc5ccccc54)ncnc32)C[C@@H]1O [MLN4924]	–	–	–	–	–	–	–	–	–	–	did not disrupt FBXO7-EYA2 binding	increased EYA2 levels
